The series in a line: gradient 5% acetonitrile 3 min, to 50% in 2 min, to 85% in 15 min, held 3 min, 100 µL/min. The following applies: column: Zorbax Extend-C18 2.1 x 50 mm; eluents: water / acetonitrile, 0.1% formic acid. An outline of the steps:
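The system's dead and dwell volumes were 40 μL and 900 μL, with a Zorbax Extend-C18 column (2.1 × 50 mm, 1.8 μm) run at 100 μL/min in water and acetonitrile containing 0.1% formic acid each. Pure standards were analyzed in mixtures of ~100 molecules by HPLC–quadrupole time-of-flight mass spectrometry in positive and negative ionization mode. Retention time was assigned from computationally picked, manually inspected adduct peaks.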
For `Cc1ccn2c(NC(=O)c3ccc(Br)cc3)c(-c3ccccc3)nc2c1`, the RP-LC retention time amounted to 709 s.
For `Cc1ccc(N2CCC(NC(=O)c3ccccc3C(F)(F)F)C2=O)cc1` (stereo not given), the RP-LC retention time amounted to 885 s.
The molecule `COc1ccc(S(=O)(=O)Nc2cc(-c3cn4ccc(C)cc4n3)ccc2C)cc1` displayed an RP-LC retention time of 662 s.
Molecule `COCc1c(C(=O)O)nnn1-c1ccc(OC)cc1` yielded an RP-LC retention time of 677 s.
In the case of `O=C(Nc1nc2c(s1)CCCC2C(=O)N1CCc2ccccc21)c1ccc2c(c1)OCO2` (stereo not given) it was 949 s.
Then `Cc1cc(NC(=O)CCS(=O)(=O)c2ccc(F)cc2)n(-c2nc3ccccc3s2)n1`, with 1030 s; and `O=C(c1ccc(Br)o1)N1CCC(c2cnn(-c3ccc(F)cc3)c2)CC1`, with 984 s.
Then `COc1ccc(CNC(=O)C2CCN(c3cnc4nccnc4c3)CC2)cc1`, with 664 s; and `CCCS(=O)(=O)N1CC(=O)N(c2cccc(F)c2)C(C)(C(=O)NC2CCCCCC2)C1` (stereo not given), with 956 s; and `COc1cc(-c2nc3cc(C)ccn3c2Nc2ccc3c(c2)OCCO3)ccc1O`, with 636 s.
`CC(C)CNC(=O)c1sc2ncccc2c1-n1cccc1`: the RP-LC retention time amounted to 971 s.
Take `O=C(Cc1c[nH]c2ccccc12)N1CCN(c2cc(-c3cccs3)[nH]n2)CC1`: the RP-LC retention time came out at 756 s.
Then `CO[C@H]1C(=O)N(C(C)C)[C@H]1C1CCN(S(=O)(=O)c2cccc(F)c2)CC1`, with 860 s.
Then `COC(=O)c1ccc(NC(=O)CSc2ccc(NC(=O)c3ccccc3F)nn2)cc1`, with 805 s.
Then `Cc1cc2[nH]c(C(=O)Nc3ccc(F)c(C)c3)c(CN3CCOCC3)c2s1`, with 720 s; and `COC1C(=O)N(c2cccc(F)c2)C12CCN(S(=O)(=O)Cc1ccccc1F)CC2` (stereo not given), with 1040 s.
In turn, `Cc1cccc2nnc(N3CCN(C(=O)c4ccc5c(c4)OCO5)CC3)n12` had an RP-LC retention time of 556 s.
The molecule `O=C(NCCOc1ccc(-c2ccccc2)nn1)c1ccc(=O)[nH]n1` registered an RP-LC retention time of 600 s.
In the case of `Cc1cc(C)n(CC(=O)N2CCN(c3ccccc3)CC2)c1-c1nc(C2CC2)no1` it was 932 s; in that of `Cc1cc(NC(=O)CSc2ccc(NC(=O)c3cccc(F)c3)nn2)no1`, 750 s.
Molecule `NC(=O)c1cccc2ncc(-c3ccc(Cl)cc3)nc12` returned an RP-LC retention time of 831 s.
In the case of `Cc1ccc2c(Nc3ccc(C)c(F)c3)c(-c3nc(C)no3)cnc2n1` it was 807 s; in that of `COc1ccc(-n2nnc(C(=O)N3CCOCC3)c2C)cc1Cl`, 684 s; in that of `OCCNCc1ccc(-c2cc(Cl)ccc2Cl)o1`, 657 s.
In the case of `COc1ccc(-c2c(C(=O)NC(C)C)nc3ccccn23)cc1` it was 676 s; in that of `CCCn1c(=O)c(C)nc2cc(-c3noc(COc4ccccc4)n3)ccc21`, 1070 s.
In turn, `CCc1nc2cc(-c3noc(-c4ccc(OC)c(F)c4)n3)ccc2o1` displayed an RP-LC retention time of 1170 s.
Turning to `COC(=O)c1ccc(NC(=O)N2CCC3(CC2)NC(=O)c2ccccc2O3)cc1`, the RP-LC retention time is 726 s.
Molecule `CCCNC(=O)C1CCCN(c2ccc(SCC(=O)Nc3c(C)cccc3C)nn2)C1` (stereo not given) displayed an RP-LC retention time of 651 s.
In the case of `NS(=O)(=O)c1ccc(CCNC(=O)c2ccc(-n3cnnn3)cc2)cc1` it was 622 s.
In the case of `Cc1cc(C2CCCN2C(=O)Nc2ccccc2C(F)(F)F)on1` (stereo not given) it was 812 s; in that of `COc1ccc(CCC(=O)N2CCC(n3nnc4cc(F)ccc4c3=O)CC2)cc1`, 784 s.
In turn, `Cc1ccc(-c2nc3cnccn3c2Nc2cccc(Cl)c2C)cc1` returned an RP-LC retention time of 1080 s.
With `Cc1cccc(CSc2nnc3c(S(=O)(=O)N4CCCC4)cccn23)c1`, the RP-LC retention time was 883 s.
Turning to `CCCNC(=O)CCc1nc2ccccc2n(CC(=O)NCc2ccccc2Cl)c1=O`, the RP-LC retention time worked out at 794 s.
In the case of `O=C(NCc1ccc2c(c1)OCO2)c1ccc2ccnc(N3CCN(C(=O)c4ccco4)CC3)c2c1` it was 679 s; in that of `CCOC(=O)C1CCCN(c2nc(Nc3ccc(F)cc3)c3n[nH]nc3n2)C1` (stereo not given), 824 s; in that of `COc1ccc(S(=O)(=O)N2C[C@H]3CN(C(=O)Nc4cccc(OC)c4)C[C@@H](C2)O3)cc1`, 881 s.
Then `CN(C)CCNC(=O)c1ccc2c(c1)nnn2Cc1ccccc1`, with 567 s.
Then `Clc1ccc(Cc2nc(-c3cccc(-c4ccn[nH]4)c3)no2)cc1`, with 1010 s; and `Cc1ccc(NC(=O)c2ccc(=O)n(CCN3CCOCC3)c2)cc1`, with 611 s.
For `CCCn1c2ccccc2c2nnc(SC(CC)C(=O)Nc3nc(-c4ccccc4)cs3)nc21` (stereo not given), the RP-LC retention time turned out to be 1230 s.
In the case of `COc1cccc(CNC(=O)C2(C)CCCN(S(=O)(=O)c3ccc(F)cc3F)C2)c1` (stereo not given) it was 922 s.
In the case of `O=C(Cn1cnc2c(sc3nc(-c4ccccc4)ccc32)c1=O)Nc1ccccc1` it was 986 s.
As for `Cc1cc(C)cc(NC(=O)C2(C)Oc3cccnc3NC2=O)c1` (stereo not given), the RP-LC retention time is 702 s.
For `COCCN1C(=O)c2ccccc2C(C(=O)NCc2ccc(Cl)cc2)C12CCCC2` (stereo not given), the RP-LC retention time is 925 s.
Consider `CCC(C)NC(=O)C1CCN(c2cnc(N3CCOCC3)nc2)CC1` (stereo not given), for which the RP-LC retention time was 638 s.
In the case of `O=C(NCc1csc(C2CCCN(C(=O)c3ccc(F)cc3Cl)C2)n1)C1CC1` (stereo not given) it was 756 s; in that of `Cc1ccc(C(=O)NCCn2c(C)cnc2C2CC2)s1`, 584 s.
In the case of `Cc1cc(C(=O)Nc2ccc(-c3nc4ccccc4o3)cc2)no1` it was 857 s.
In the case of `Brc1ccc(OCc2nnc3sc(-c4ccccc4)nn23)cc1` it was 1050 s.
`CCCCn1nnc(NCc2ccc(-c3ccc(Cl)cc3Cl)o2)n1` registered an RP-LC retention time of 1280 s.
In the case of `c1csc(CN2CCC(Oc3ccccc3-c3nc(-c4cnccn4)no3)C2)c1` (stereo not given) it was 662 s; in that of `CC(=O)N1c2ccc(S(=O)(=O)N3CCCC3)cc2CC1C(=O)NCCc1ccccc1C` (stereo not given), 848 s.
Then `Cc1cc(-c2c(C)sc(C)c2S(=O)(=O)Nc2ccc(C)c(C)c2)n[nH]1`, with 1090 s; and `Cc1ccc(CNC(=O)C(C)Oc2cc(-c3ccccc3)c3c(C)nn(C)c3n2)o1` (stereo not given), with 769 s; and `O=C(Nc1ccc(C2(C(=O)N3CCCCCC3)CCC2)cc1)C1CC1`, with 844 s.
The molecule `COC(=O)c1sccc1NC(=O)N1CCc2c([nH]c3ccccc23)C1c1ccc(F)cc1` (stereo not given) yielded an RP-LC retention time of 1300 s.
Molecule `COc1ccc(-c2nc3cnccn3c2Nc2ccc(C(C)C)cc2)cc1` registered an RP-LC retention time of 1040 s.
Consider `CCOc1cc(=O)n2c(c1C(=O)Nc1ccc(Br)cc1)CCCC2`, for which the RP-LC retention time turned out to be 798 s.
In the case of `CCC(C)NC(=O)CCn1c(=O)c2ccccc2n2c(=O)n(Cc3ccccc3)nc12` (stereo not given) it was 856 s; in that of `Cc1ccc(-c2nnc(Cc3nc(-c4ccccc4Cl)no3)o2)cc1F`, 1110 s.
`CC1CCN(c2ccc(-c3noc(CN(C)C4CCCCC4)n3)cn2)CC1` gave an RP-LC retention time of 720 s.
Then `CS(=O)(=O)N1CCCN(C(=O)NC2CCCC2)CC1`, with 636 s; and `N#Cc1cccc(-c2cn3c(n2)N(C(=O)c2ccco2)CCC3)c1`, with 645 s; and `Cc1cc(-c2ccc(S(=O)(=O)N3CCC(C(=O)NCc4ccco4)CC3)o2)n[nH]1`, with 733 s.
In the case of `Cc1nn(C)cc1CN1CCC[C@H]1c1nc(-c2ccccc2)n[nH]1` it was 580 s; in that of `CCc1noc2nc(C)n(CC(=O)NCc3ccccc3C)c(=O)c12`, 782 s; in that of `CCN1CCCC(OC(=O)C(c2ccccc2)c2ccccc2)C1` (stereo not given), 802 s.
As for `Cc1c(C(=O)O)sc2nc(SCC(=O)Nc3ccccc3C(F)(F)F)[nH]c(=O)c12`, the RP-LC retention time came to 669 s.
`COc1ccc(-c2nc3nccc(-c4ccsc4)n3n2)c(OC)c1`: the RP-LC retention time was 832 s.
In turn, `CCC(=O)N1CCCN(C2=NS(=O)(=O)C(c3ccc(F)cc3)=C2C)CC1` displayed an RP-LC retention time of 698 s.
Then `CN(C)C(=O)c1ccc2c(c1)N(CC(=O)NCc1ccc(Cl)cc1)C(=O)CO2`, with 707 s.
In the case of `O=C(NCc1ccc2c(c1)OCO2)c1csc(NS(=O)(=O)c2cccs2)n1` it was 721 s; in that of `Cc1ccnc(N2CCC(C(=O)N3CCN(Cc4ccc5c(c4)OCO5)CC3)CC2)n1`, 590 s.
`O=C(Nc1cc(Cl)ccc1F)c1cnc(-c2ccc(F)cc2)nc1-c1ccncc1` showed an RP-LC retention time of 1050 s.
In turn, `COc1cccc(-c2nc(Cc3nc(-c4ccccc4)oc3C)no2)c1` returned an RP-LC retention time of 1100 s.
`O=C(Nc1cccc([N+](=O)[O-])c1)NC1CCS(=O)(=O)C1` (stereo not given) returned an RP-LC retention time of 626 s.
In the case of `Cn1nc(C(=O)N2CC(c3nc(-c4cccs4)no3)C2)ccc1=O` it was 639 s.
In the case of `CC(C)c1noc(N2CCC(COc3ccc(-c4ccc(S(C)(=O)=O)cc4)nc3)CC2)n1`, the RP-LC retention time was found to be 991 s.
